Test results: PubChem BioAssay (NCI)
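Assay format: 96-well plates, 48-hour exposure. At the GI50, growth is halved. The concentration for full growth arrest is given as TGI.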

Columns and labels:
Experiment in all cases: DTP human tumour cell line panel, 48 h; in the data active = GI50 below about 0.43 µM; inactive = the rest
[1] = tested on: SF-268 CNS
[2] = tested on: A498 renal
[3] = tested on: EKVX NSCLC
[4] = tested on: MCF7 breast
[5] = tested on: SNB-75 CNS
[6] = tested on: MOLT-4 leukemia
[7] = tested on: MDA-MB-435
[8] = tested on: BT-549 breast
[9] = tested on: NCI-H23 lung
[10] = tested on: KM12 colon
[11] = tested on: HT29 colon
[12] = tested on: IGROV1 ovarian
[13] = tested on: CCRF-CEM leukemia
[14] = tested on: HCT-15 colon
[15] = tested on: 786-0 renal
[16] = tested on: OVCAR-5 ovarian
[17] = tested on: HS 578T breast
[18] = tested on: SF-539 CNS
[19] = tested on: OVCAR-3 ovarian
[20] = tested on: OVCAR-8 ovarian
[21] = tested on: PC-3 prostate
[22] = tested on: LOX IMVI melanoma
[23] = tested on: DU-145 prostate
[24] = tested on: SNB-19 CNS
[25] = tested on: MDA-MB-231 breast
[26] = tested on: MALME-3M melanoma
[27] = tested on: SF-295 CNS
[28] = tested on: A549 NSCLC
[29] = tested on: K-562 leukemia
[30] = tested on: RXF 393 renal

CN(C)c1ccc(N=Nc2ccc(Br)cn2)c(O)c1
active: GI50 [1] 0.404 µM | GI50 [3] 0.382 µM | GI50 [4] 0.385 µM | GI50 [6] 0.294 µM | GI50 [12] 0.359 µM | GI50 [13] 0.227 µM | GI50 [14] 0.171 µM | GI50 [15] 0.266 µM | GI50 [19] 0.32 µM | GI50 [22] 0.294 µM
> 82.6 µM: TGI [5]
> 31 µM: TGI [19]
> 46.7 µM: TGI [6]
> 100 µM: TGI [1] | TGI [3] | TGI [4] | TGI [7] | TGI [8] | TGI [9] | TGI [10] | TGI [11] | TGI [12] | TGI [14] | TGI [15] | TGI [16] | TGI [17] | TGI [20] | TGI [21] | TGI [23] | TGI [24] | TGI [25] | TGI [26] | TGI [27] | TGI [28] | TGI [29]
66.7 µM: TGI [2]
8.8 µM: TGI [18]
inactive: GI50 [2] 3.21 µM | GI50 [5] 1.55 µM | GI50 [7] 1.93 µM | GI50 [8] 0.737 µM | GI50 [9] 1.13 µM | GI50 [10] 0.854 µM | GI50 [11] 0.603 µM | GI50 [16] 1.42 µM | GI50 [17] 5.78 µM | GI50 [18] 0.673 µM | GI50 [20] 0.549 µM | GI50 [21] 0.556 µM | GI50 [23] 0.653 µM | GI50 [24] 0.641 µM | GI50 [25] 0.551 µM | GI50 [26] 2.65 µM | GI50 [27] 0.635 µM | GI50 [28] 0.682 µM | GI50 [29] 0.471 µM | GI50 [30] 0.62 µM
